Columns and labels:
[1] = tested on: patient with chronic depression and post-traumatic stress disorder
[2] = tested on: surgical patients; details: over 80 patients; GABA-A agonist (e.g., propofol) and adjunctive medications
Source text: This invention describes the discoveries that control, monitor, and administer the hypnotic or sedative agent such as a GABA-A agonist (e.g., propofol) and adjunctive medications at designed dosages, timing, and modes of administration to produce dreams and an unique sleep state of un-fragmented Continuous REM Sleep.

[3] = tested on: rats; details: intravenous, over a 6 hour period; cited from earlier work
[4] = Patient A, same regimen, follow-up

For `CC(C)c1cccc(C(C)C)c1O` [propofol, 2-6 diisopropylphenol], the “patient-reported sleep recovery after the procedure” value ([1]; Patient A, same regimen, Continuous REM Sleep of approximately 1 hour) was “felt extremely rested”, the “duration of improved ease of sleeping post-operatively” value [1, 4] was “three” and the nightmares on follow-up [1, 4] was “lack of nightmares”. For the same compound, the “dreaming reported during the procedure” value ([1]; human, in vivo) was “profuse dreaming about gardening”, the “achievement of Continuous REM Sleep” value [2] was “achieved Continuous REM Sleep” and the “replication of natural sleep cycle” value [3] was “replicate a natural sleep cycle”.
